Source: patent US20100216761A1, “NOVEL AZETIDINONES USEFUL AS INHIBITORS OF ELASTASE” (priority 2007, published 2010)

Tests used:
[1] = Rat 7 day oral dose limiting toxicity assessment; type: in vivo; conditions: for mortality: 750 mpk dose group, n=5 per group; for NO Effect Level (NOEL): in vivo, po, 7 days; for Dose limiting toxicity assessment, 25 mpk: p.o. 25 mg per kg per day for 7 days; for Dose limiting toxicity assessment, 25 mpk / Dose limiting toxicity assessment, 100 mpk / Dose limiting toxicity assessment, 750 mpk: mono-L-malic acid salts; for Dose limiting toxicity assessment, 100 mpk: p.o. 100 mg per kg per day for 7 days; for Dose limiting toxicity assessment, 750 mpk: p.o. 750 mg per kg per day for 7 days; for physical signs of toxicity: p.o. 100 mpk dose for 7 days
Method: The observations summarized in Table 8 indicate that both Example 1 and Compound #290 have the same NO Effect Level in a Dose Limiting Toxicity assay in the rat (NOEL=100 mpk/day for 7 days for both) (Note 11), and would argue against the use of higher doses of Compound #290 to achieve the same plasma exposure as Example 1 in the clinic.
Example 1 and Compound #290 as their mono-L-malic acid salts were formulated in 0.5% Methocel and dosed p.o. at 25, 100 and 750 mg per k per day (free base equivalent) for 7 days (n=5 animals in each group). During the dosing period observation of any physical signs of toxicity were noted. Upon termination on day 8, a standard battery of blood chemistry and tissue analyses were performed and evaluated for significant effects compared to vehicle controls. […] At the 750 mpk dose level several adverse effects were observed including mortality (⅖ for Example 1 on Day 7 and 8 in the 750 mpk dose group; ⅕ on day 4 for Compound #290 in the 750 mpk dose group).

[2] = Liver microsome stability in 4 species: human; type: in vitro ADME; conditions: substrate 0.5 uM, microsome 0.25 mg/mL
Method: (§1) In a separate experiment as exemplified in Table 3, the stability of the current Example 1 and the comparator Compound #290 in incubations with microsome preparations from 4 different species were also determined (Note 5).
(§2) X. S. Tong, et. al., J. of Chromatography, 2006, 833, 165.

[3] = Liver microsome stability in 4 species: monkey; type: in vitro ADME; conditions: substrate 0.5 uM, microsome 0.25 mg/mL
Method: as §1, §2

CYP2D6 = molecular target: T1, CYP2D6 (Homo sapiens, UniProt P10635); assay: CYP-P450 reversible inhibition, 2D6; type: in vitro ADME; conditions: probe fluorogenic probe (not named); human liver microsomes or recombinant P450 microsomes; fluorescent probe
T1 construct: host or cells: human liver microsomes or recombinant P450 microsomes
Method: (§3) This assay measured the reversible inhibition of the test compounds against three cytochrome P450 isozymes (CYP-P450 3A4, 2C9 and 2D6) in an automated screening formate. […] Cumene hydroperoxide, NADPH or NADPH regenerating systems can be used as electron donors for the P450 catalytic cycle. Control incubations containing no inhibitor or no fluorescent probe were performed to evaluate the 100% and 0% activities, respectively. The activity of P450 enzyme was evaluated in the presence of 0.137, 0.273, 0.547, 1.094, 2.188, 4.375, 8.750, 17.5, 35.0 and 70.0 μM concentrations of the test compounds. Inhibition curves were generated and IC50 values were calculated for each tested compound using standard techniques.

[4] = Liver microsome stability in 4 species: dog; type: in vitro ADME; conditions: substrate 0.5 uM, microsome 0.25 mg/mL
Method: as §1, §2

CYP3A4 = CYP3A4 (Homo sapiens, UniProt P08684); assay: CYP-P450 reversible inhibition, 3A4; type: in vitro ADME; set-up: host or cells: human liver microsomes or recombinant P450 microsomes; conditions: probe fluorogenic probe (not named); human liver microsomes or recombinant P450 microsomes; fluorescent probe
Method: as §3

[5] = molecular target: T2, Human Leukocyte Elastase (HLE) (Homo sapiens, UniProt P08246); assay: HLE time-dependent reactivation (off-rate) assay; type: biochemical; conditions: head-to-head with Examples 1 and 3
T2 construct: The PMN lysates were prepared by isolating human neutrophils from whole blood; from tissue; host or cells: human neutrophils (PMN) isolated from whole blood, lysed by sonication in PBS
T2 sequence (P08246 30-267): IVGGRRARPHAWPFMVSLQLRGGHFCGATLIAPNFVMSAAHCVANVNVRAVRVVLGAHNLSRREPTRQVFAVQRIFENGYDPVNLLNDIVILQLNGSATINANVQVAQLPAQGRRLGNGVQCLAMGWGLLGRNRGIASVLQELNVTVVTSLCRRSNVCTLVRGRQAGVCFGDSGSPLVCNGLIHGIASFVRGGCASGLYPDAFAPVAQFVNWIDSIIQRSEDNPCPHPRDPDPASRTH
Method: An important and desirable aspect of these mechanism-based HLE inhibitors is also the extent to which the enzyme remains inactivated or, in other words, the rate at which the modified inhibitor comes off the enzyme after the inactivation event has occurred and which then gives back the active HLE enzyme (see Note 2c and 4). This property was assessed in a time-dependent reactivation assay and the results were calculated as a first-order rate constant expressed as their half-lives in hours (t1/2). […] Under head-to-head conditions (n=2) with Examples 1 and 3, the off-rate for the comparator Compound #290 of U.S. Pat. No. 5,591,737 was determined to be 7.1 hrs, or about 2.5-2.6 times as fast.
Elastase was incubated with 100-fold molar excess of inhibitor in TES buffer (0.045M TES, 0.45M NaCl, pH 7.5, 0.1% BSA) at room temperature for 60 minutes. After the incubation was complete, the samples were loaded onto prepared columns (Micro BioSpin Chromatography Columns-Bio-Gel P-6 Columns Bio-Rad Cat# 732-6221; prepared as directed by the manufacturer). […] At specific time points, the filtrate was monitored for elastase activity by adding the filtrate to 1 mM substrate (MeoSucc-AAPV-pNA; Elastin Products Cat# FH237) in TES buffer (0.045M TES, 0.45M NaCl, pH 7.5) and measuring the absorbance at 410 nm. The absorbance was monitored every 10 seconds for 5 minutes. […]

T1 sequence (P10635 whole entry): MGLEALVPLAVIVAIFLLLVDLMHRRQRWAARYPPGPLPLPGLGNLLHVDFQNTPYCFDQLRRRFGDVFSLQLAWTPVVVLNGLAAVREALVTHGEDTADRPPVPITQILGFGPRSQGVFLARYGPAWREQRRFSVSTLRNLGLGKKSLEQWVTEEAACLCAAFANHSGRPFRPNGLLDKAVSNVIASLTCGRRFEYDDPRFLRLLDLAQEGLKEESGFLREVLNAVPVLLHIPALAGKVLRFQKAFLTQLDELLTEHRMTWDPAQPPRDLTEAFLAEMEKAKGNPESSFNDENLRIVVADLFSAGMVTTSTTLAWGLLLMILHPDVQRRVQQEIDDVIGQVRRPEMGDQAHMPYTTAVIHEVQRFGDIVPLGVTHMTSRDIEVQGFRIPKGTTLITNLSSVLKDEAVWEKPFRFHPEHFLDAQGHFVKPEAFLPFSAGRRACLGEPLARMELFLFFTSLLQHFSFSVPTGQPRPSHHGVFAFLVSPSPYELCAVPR
CYP3A4, sequence (P08684 whole entry): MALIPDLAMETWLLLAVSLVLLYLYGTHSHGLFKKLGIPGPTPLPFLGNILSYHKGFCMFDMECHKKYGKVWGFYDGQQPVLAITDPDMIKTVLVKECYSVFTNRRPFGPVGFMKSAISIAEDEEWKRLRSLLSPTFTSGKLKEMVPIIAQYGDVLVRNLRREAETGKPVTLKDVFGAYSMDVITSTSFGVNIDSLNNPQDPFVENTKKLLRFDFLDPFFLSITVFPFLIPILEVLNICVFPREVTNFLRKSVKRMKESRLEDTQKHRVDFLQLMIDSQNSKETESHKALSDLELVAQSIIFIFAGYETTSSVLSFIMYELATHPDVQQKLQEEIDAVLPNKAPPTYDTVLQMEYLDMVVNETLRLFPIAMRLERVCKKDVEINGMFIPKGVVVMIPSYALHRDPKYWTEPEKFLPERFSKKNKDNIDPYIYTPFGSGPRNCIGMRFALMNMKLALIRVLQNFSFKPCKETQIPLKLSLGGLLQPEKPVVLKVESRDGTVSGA

Compound | mortality [1] | NO Effect Level (NOEL) [1] [mpk/day] | Dose limiting toxicity assessment, 25 mpk ([1]; 25 mg/kg) | Dose limiting toxicity assessment, 25 mpk ([1]; listed as xample 1, 25 mg/kg) | Dose limiting toxicity assessment, 100 mpk ([1]; 100 mg/kg) | Dose limiting toxicity assessment, 100 mpk ([1]; listed as xample 1, 100 mg/kg) | Dose limiting toxicity assessment, 750 mpk [1] | physical signs of toxicity [1] | % Left @ 30 min [2] [%] | % Left @ 60 min [2] [%] | % Left @ 30 min [3] [%] | % Left @ 60 min [3] [%] | IC50 (CYP2D6) [µM] | % Left @ 30 min [4] [%] | % Left @ 60 min [4] [%] | IC50 (CYP3A4) [µM] | off-rate relative to Examples 1 and 3 (times as fast) [5]
CCC[C@@H](NC(=O)N1C(=O)C(CC)(CC)[C@@H]1Oc1ccc(C(=O)N(CC)CCN(C)C)cc1)c1ccc(OC(F)(F)F)cc1 [Example 1, 2-(S)-[4-(((2-(Dimethylamino)ethyl)ethylamino)carbonyl)phenoxy]-3,3-diethyl-N-[1-(R)-(4-(trifluoromethoxy)phenyl)butyl]-4-oxo-1-azetidinecarboxamide] | ⅖ | 100 | no adverse effects | No effects | no adverse effects | No effects | Significant toxicity observed | salivation | 92 | 92 | 91 | 77 | > 8 | 93 | 86 | > 8 | –
CCC[C@@H](NC(=O)N1C(=O)C(CC)(CC)[C@@H]1Oc1ccc(C(=O)N(C)CCN(C)C)cc1)c1ccc(OC)cc1 [Compound #290, reference compound] | ⅕ | 100 | no adverse effects | – | no adverse effects | – | Significant toxicity observed | salivation | 93 | 88 | 90 | 67 | > 8 | 100 | 102 | > 8 | 2.5-2.6 times
